Reference: patent US11214803B2, “Modulators of YAP1 expression” (Ionis Pharmaceuticals, Inc., priority 2019, dated 2022)
Strand notation (5' to 3'): a small letter for the sugar, then the base; units joined by * are phosphorothioate-linked, units joined directly phosphodiester-linked; [ ] holds rarer units or linkages, { } end groups; capitals alone tell only the bases. k = constrained ethyl (cEt); [5mC] = 5-methylcytosine; d = 2'-deoxy (DNA)

Each substance was assayed on Yap1 mRNA (assay: Antisense inhibition of human Yap1 in A-431 cells by cEt gapmers, single dose (Example 3, RTS36584)). Details: Table 8; A-431 cells, 5,000 cells per well, free uptake, 2,000 nM, approximately 48 hours; RTS36584; normalized to RIBOGREEN; Yap1 mRNA relative to untreated control cells.
Type: cell-based
Method in brief: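 Human epidermoid A-431 cells take up gapmer (2,000 nM, free uptake, ~48 h); Yap1 transcript is then assayed by qRT-PCR with RiboGreen normalization and reported relative to untreated cells. Gapmers carry cEt-modified wings, phosphorothioate linkages and 5-methylcytosine throughout.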

For “958352 (k[5mC]*kG*kG*dT*d[5mC]*dT*d[5mC]*d[5mC]*dG*dA*dG*dT*d[5mC]*k[5mC]*k[5mC]*k[5mC]; antisense) [Compound 958352]”, the “YAP1 (% UTC)” value was 110 % UTC.

Same assay, conditions: Table 9; A-431 cells, 5,000 cells per well, free uptake, 2,000 nM, approximately 48 hours; RTS36584; normalized to RIBOGREEN; Yap1 mRNA relative to untreated control cells

Compared with “958691 (antisense kT*k[5mC]*kA*dG*dT*dT*dG*dG*d[5mC]*dA*dA*d[5mC]*dA*kG*kT*k[5mC]) [Compound 958691]”, “958556 (k[5mC]*kA*kA*d[5mC]*d[5mC]*dA*dA*d[5mC]*dT*dA*dT*dT*dA*k[5mC]*kT*kT; antisense) [Compound 958556]” is lower in “YAP1 (% UTC)” value: 20 % UTC for the first, 10 % UTC for the second.

Compared with “958651 (kA*kA*k[5mC]*dT*dA*dA*dA*dG*dA*dG*dG*dA*d[5mC]*kT*kT*kA; antisense) [Compound 958651]”, “958631 (antisense kT*kG*k[5mC]*dA*dA*dA*dT*dA*dG*dG*dA*dG*dA*kG*kG*kG) [Compound 958631]” is higher in “YAP1 (% UTC)” value: 62 % UTC for the first, 122 % UTC for the second.

Same assay, conditions: Table 10; A-431 cells, 5,000 cells per well, free uptake, 2,000 nM oligonucleotide, approx. 48 hours; primer probe set RTS36584; Yap1 mRNA normalized to RIBOGREEN, percent of untreated control

First: 958662 (kG*kA*kA*d[5mC]*dA*dG*dA*dT*dA*dG*dG*dA*d[5mC]*kT*kA*k[5mC]; antisense) [Compound 958662]
Second: 958582 (kA*kA*kT*d[5mC]*dT*dG*d[5mC]*dT*dG*dA*dT*dA*dT*kA*kT*kA; antisense) [Compound 958582]
The “YAP1 (% UTC)” value of the first is higher: 51 % UTC for the first, 21 % UTC for the second.

First: 958512 (k[5mC]*kA*kT*dT*d[5mC]*d[5mC]*dA*d[5mC]*dT*dA*d[5mC]*d[5mC]*dA*k[5mC]*kA*k[5mC]; antisense) [Compound 958512]
Second: 958487 (kT*k[5mC]*k[5mC]*dA*dA*dA*d[5mC]*dA*dG*dG*d[5mC]*dT*d[5mC]*kA*k[5mC]*kT; antisense) [Compound 958487]
The “YAP1 (% UTC)” value of the first is higher: 14 % UTC for the first, 10 % UTC for the second.

Same assay, conditions: Table 11; A-431 cells, 5,000 cells per well, free uptake, 2,000 nM oligonucleotide, approx. 48 hours; primer probe set RTS36584; Yap1 mRNA normalized to RIBOGREEN, percent of untreated control

In the case of “958583 (kA*kG*k[5mC]*dT*dA*dA*dT*d[5mC]*dT*dG*d[5mC]*dT*dG*kA*kT*kA; antisense) [Compound 958583]”, the “YAP1 (% UTC)” value is reported as 89 % UTC.

Same assay, conditions: Table 12; A-431 cells, 5,000 cells per well, free uptake, 2,000 nM modified oligonucleotide, approx. 48 hours; RTS36584; normalized to RIBOGREEN; Yap1 mRNA relative to untreated control cells

For “958664 (kA*k[5mC]*kG*dA*dA*d[5mC]*dT*dA*dA*dG*dG*dT*dG*kT*kA*k[5mC]; antisense) [Compound 958664]”, the “YAP1 (% UTC)” value was 40 % UTC.

Same assay, conditions: Table 13; A-431 cells, 5,000 cells per well, free uptake, 2,000 nM modified oligonucleotide, approx. 48 hours; RTS36584; normalized to RIBOGREEN; Yap1 mRNA relative to untreated control cells

Compared with “958820 (kG*kA*k[5mC]*d[5mC]*dA*dG*dT*dA*dA*dG*dA*dA*dG*k[5mC]*k[5mC]*kA; antisense) [Compound 958820]”, “958635 (antisense kG*kT*kT*dT*dA*dG*dG*d[5mC]*dA*dA*dG*d[5mC]*dA*kG*k[5mC]*kT) [Compound 958635]” is lower in “YAP1 (% UTC)” value: 49 % UTC for the first, 43 % UTC for the second.

With “958760 (antisense kA*kG*kT*dA*dA*dT*dA*dG*dA*dT*d[5mC]*dT*dA*k[5mC]*kA*kA) [Compound 958760]” the “YAP1 (% UTC)” value was 76 % UTC.

Same assay, conditions: Table 26; Yap1 mRNA by 3-10-3 cEt gapmers targeting SEQ ID NO.: 1, and 2; percent of untreated control

Going from “1076044 (kA*kT*k[5mC]*dA*dA*dA*dA*dA*dG*dG*d[5mC]*dT*dA*kT*kT*kG; antisense) [compound 1076044]” to “1074860 (kA*kA*kA*dG*dG*dT*dA*dA*d[5mC]*dA*dT*dT*dG*kG*kT*kA; antisense) [compound 1074860]”, the “YAP1 (% UTC)” value falls from 73 % UTC to 9 % UTC.

First: 1075596 (antisense kA*kT*kA*dT*dA*dA*dT*dA*d[5mC]*dA*dT*d[5mC]*dT*k[5mC]*k[5mC]*k[5mC]) [compound 1075596]
Second: 1075404 (antisense kA*kT*kA*dT*dA*dA*d[5mC]*d[5mC]*dT*dG*dA*dA*d[5mC]*kT*kA*kA) [compound 1075404]
The “YAP1 (% UTC)” value of the first is lower: 91 % UTC for the first, 102 % UTC for the second.

Same assay, conditions: Table 27; Yap1 mRNA by 3-10-3 cEt gapmers targeting SEQ ID NO.: 1, and 2; percent of untreated control

First: 1076429 (k[5mC]*kA*kT*dT*dA*d[5mC]*dA*dA*dG*d[5mC]*dA*dT*dA*kG*kG*k[5mC]; antisense) [compound 1076429]
Second: 1076333 (antisense k[5mC]*kT*kA*dT*dA*dA*dG*dG*dA*dA*dT*dG*dG*k[5mC]*kA*kA) [compound 1076333]
The “YAP1 (% UTC)” value of the first is lower: 26 % UTC for the first, 97 % UTC for the second.

Going from “1074189 (antisense kG*kG*k[5mC]*dT*dG*d[5mC]*dG*dA*dA*dG*dG*d[5mC]*dG*kG*k[5mC]*kT) [compound 1074189]” to “1076301 (kG*kT*kA*dT*dA*dA*dG*dA*d[5mC]*d[5mC]*dT*dT*dG*kG*kG*kA; antisense) [compound 1076301]”, the “YAP1 (% UTC)” value falls from 96 % UTC to 34 % UTC.

First: 1076109 (k[5mC]*kT*kT*dA*dA*dA*dT*dG*dA*d[5mC]*d[5mC]*dA*dA*kT*kT*k[5mC]; antisense) [compound 1076109]
Second: 1075661 (antisense kG*kA*kA*dT*dA*dG*dG*dA*dT*dA*d[5mC]*dA*dA*kG*k[5mC]*kA) [compound 1075661]
The “YAP1 (% UTC)” value of the first is lower: 23 % UTC for the first, 74 % UTC for the second.

Compared with “1076141 (kT*kA*k[5mC]*dG*dA*dA*dA*dA*dA*dA*dG*d[5mC]*d[5mC]*kA*kA*k[5mC]; antisense) [compound 1076141]”, “1074157 (kA*kG*k[5mC]*dG*dA*dG*dG*dG*d[5mC]*dT*dA*d[5mC]*dG*k[5mC]*k[5mC]*k[5mC]; antisense) [compound 1074157]” is higher in “YAP1 (% UTC)” value: 29 % UTC for the first, 103 % UTC for the second.

Same assay, conditions: Table 28; Yap1 mRNA as percent of untreated control; 3-10-3 cEt gapmers targeting SEQ ID NO.: 1, and 2

Compared with “1076046 (k[5mC]*kT*kT*dA*dA*dA*dT*dG*dG*dT*dG*d[5mC]*dA*kA*kT*kA; antisense) [compound 1076046]”, “1076558 (kG*k[5mC]*k[5mC]*dA*dA*dA*dT*dA*dT*dT*dT*dA*dA*k[5mC]*kT*k[5mC]; antisense) [compound 1076558]” is higher in “YAP1 (% UTC)” value: 28 % UTC for the first, 30 % UTC for the second.

“1075886 (antisense k[5mC]*kA*kT*dA*dA*d[5mC]*dA*d[5mC]*dT*dG*dA*dA*dG*kG*kT*kG) [compound 1075886]” was tested, and the “YAP1 (% UTC)” value was 60 % UTC.

Same assay, conditions: Table 29; Yap1 mRNA as percent of untreated control; 3-10-3 cEt gapmers targeting SEQ ID NO.: 1, and 2

Compared with “1075535 (kA*kA*kT*dT*dA*d[5mC]*d[5mC]*d[5mC]*dA*dA*dG*dG*dA*k[5mC]*kA*kG; antisense) [compound 1075535]”, “1075247 (k[5mC]*kT*kA*dA*dG*dA*dT*dA*dA*d[5mC]*dT*dA*dG*kT*kA*kA; antisense) [compound 1075247]” is higher in “YAP1 (% UTC)” value: 53 % UTC for the first, 101 % UTC for the second.

First: 1076047 (kA*k[5mC]*kT*dT*dA*dA*dA*dT*dG*dG*dT*dG*d[5mC]*kA*kA*kT; antisense) [compound 1076047]
Second: 1074191 (antisense kA*k[5mC]*kG*dG*d[5mC]*dG*dG*dG*d[5mC]*d[5mC]*d[5mC]*dT*dG*k[5mC]*k[5mC]*k[5mC]) [compound 1074191]
The “YAP1 (% UTC)” value of the first is lower: 34 % UTC for the first, 80 % UTC for the second.

Same assay, conditions: Table 34; Yap1 mRNA as percent of untreated control; 3-10-3 cEt gapmers targeting SEQ ID NO: 1 and 2; single dose

First: 1074196 (antisense kG*k[5mC]*k[5mC]*d[5mC]*dG*dG*dG*dT*d[5mC]*d[5mC]*dG*dG*dA*k[5mC]*kG*kG) [compound 1074196]
Second: 1075348 (antisense kT*k[5mC]*kA*d[5mC]*dA*dA*dA*dA*d[5mC]*d[5mC]*d[5mC]*dT*dA*k[5mC]*kA*k[5mC]) [compound 1075348]
The “YAP1 (% UTC)” value of the first is higher: 99 % UTC for the first, 96 % UTC for the second.

In the case of “1076436 (k[5mC]*kA*kT*dT*dA*d[5mC]*dT*dA*d[5mC]*dT*d[5mC]*dT*dG*kT*k[5mC]*k[5mC]; antisense) [compound 1076436]”, the “YAP1 (% UTC)” value is reported as 39 % UTC.

Same assay, conditions: Table 35; Yap1 mRNA as percent of untreated control; 3-10-3 cEt gapmers targeting SEQ ID NO: 1 and 2; single dose

Compared with “1075157 (k[5mC]*k[5mC]*kA*dG*dA*dA*dA*dA*dT*d[5mC]*dA*dT*dA*kG*kT*kA; antisense) [compound 1075157]”, “1076117 (k[5mC]*kT*kA*dG*dA*dA*dA*dA*dT*dA*dG*d[5mC]*d[5mC]*k[5mC]*kA*kT; antisense) [compound 1076117]” is lower in “YAP1 (% UTC)” value: 19 % UTC for the first, 15 % UTC for the second.

“1074709 (antisense kT*k[5mC]*kT*dA*dG*dA*dA*d[5mC]*dA*dG*d[5mC]*dT*dG*k[5mC]*k[5mC]*kT) [compound 1074709]” was tested, and the “YAP1 (% UTC)” value was 71 % UTC.
